Seven molecules from patent US20020002277A1, “Inhibitors of platelet activation and recruitment” (priority 1998, published 2002) can be followed below.

Series [1] has as its system platelets. Kind of series: Ex vivo additive inhibition of platelet aggregation in platelet rich plasma from patients. In kind it is cell-based, human. Particulars: PRP from patients receiving the drug (clopidogrel, ticlopidine, abciximab groups also received aspirin). How it is done:
Each group consisted of three to six patients. […] SoICD39 (10 μg/ml or 100 μg/ml) was then added and the additional inhibition of platelet activation (over baseline, in response to the platelet agonists) was measured in each of the five groups.

Series [2] deals with murine platelets. Kind of series: Ex vivo aggregation of murine platelets after treatment. In kind it is in vivo, C57BL/6J mice. Particulars: PRP 1 hour after solCD39 4 mg/kg or aspirin 5 mg/kg. On the procedure:
C57BL/6J mice (6-8 wk) were obtained from Jackson Laboratories (Bar Harbor, Me.). […] 80 μL of 3.8% trisodium citrate was added to each mL of blood. […] The PRP contained 400-700×10^3 platelets per μL. All experiments were completed within 2 hours of blood collection. PRP (200 μL) was preincubated, for 3 min. at 37° C., with 100 μL Tris-buffered saline buffer ([…], 5 mM glucose, pH 7.4) in an aggregometer cuvette (Lumiaggregometer; Chrono-Log, Havertown, Pa.), and the platelet agonists ADP, collagen, or sodium arachidonate were added at the final concentrations indicated.

Series [3] in a line: Murine model of stroke (middle cerebral artery occlusion). It is filed as in vivo, C57BL/6J mice. On the procedure:
Anesthetized mice were maintained at 37±2° C. during and for 90 min following surgery. A midline neck incision was made and the right carotid artery exposed. Middle cerebral artery occlusion was accomplished by advancing a 13-mm heat-blunt tipped 6-0 nylon suture via an arteriotomy in the external carotid stump. The external carotid artery was cauterized to secure hemostasis, and arterial flow re-established. […] Surgical staples were used for wound closure.

A short description of series [4]: Phosphate release assay for ATPase activity. Particulars: for CPM × 10^3 (net counts), ATPase activity in CM: 5 days (Table 3); for Activity (pmol ATP/min/μg) × 10^3: specific activity based on ELISA concentration, COS-1 1x supernatant, 10 cm plates, 5 days. It is filed as biochemical. On the procedure: This example describes an ATPase assay that may be used to track enzyme activity. Samples (approximately 100 μl of either concentrated CM or purified polypeptide) are combined with 20 μl of 10X assay buffer (200 mM HEPES, 1.2 M NaCl, 50 mM KCl, 15 mM CaCl2, 15 mM MgCl2 and 3 mM ATP) and sterile water is added to a final volume of 200 μl. Radiolabeled ATP (0.8 μCi γ [^32P] ATP; Amersham, Arlington Heights, Ill.) is added and the mixture incubated for 20 minutes at 37° C. Stop mix (0.5 ml of 20% activated charcoal/1 M HCl) is added and the reaction is placed on ice for 10 minutes. After centrifugation (14K rpm for 10 minutes), the supernatant is assayed for free ^32P using a scintillation counter. Data are expressed as raw counts or net counts, or as picomoles of ATP degraded per minute.
The transfections were repeated and the CM (10, 20 and 30 μL, unconcentrated) was assayed essentially as described in Example 7. […] ATPase levels in CM from COS-1 cells transfected with pIL2LFlagSolCD39 increased with time in culture over at least 4 days post-transfection.
To determine whether activity was affected by removal of the N-terminal FLAG® tag, COS-1 cells were transfected with pIL2LFlagSolCD39 and pIL2LSolCD39 and supernatants (sups) were harvested after 5 days. Samples of 10, 20 and 30 μL of 1x sups were assayed for ATPase activity as described in Example 7.
The expression of Trim1 and Trim2 constructs was analyzed in COS-1 cells cultured in 10 cm plates. After 5 days of incubation, 1x supernatants were examined via ELISA (using anti-CD39) and the phosphate-release assay described in Example 7. […] Expression levels, however, appeared to be reduced 3-4 fold.
In general terms: In an ELISA, binding on a coated surface is turned into a signal by an enzyme label.

Series [5] is described as follows: Enzymatic (ATPase and ADPase) activity of site-directed CD39 mutants. It is filed as biochemical. The conditions noted are these: alanine replacement mutant. How it is done:
Mutants were assayed for enzymatic (ATPase and ADPase) and platelet inhibitory (dose-dependent inhibition of platelet aggregation) activities. For one series of mutants, residues within the conserved apyrase regions were replaced with alanine.

Turning to `COC(=O)[C@H](c1ccccc1Cl)N1CCc2sccc2C1` [Clopidogrel, clopidogrel], the “Platelet aggregation, baseline” value in series [1] (agonist ADP) worked out at 58 ± 6 arbitrary units; in series [1] (agonist Collagen), 57 ± 9 arbitrary units; in series [1] (agonist TRAP) it was 51 ± 2 arbitrary units.

Consider `CC(=O)Oc1ccccc1C(=O)O` [aspirin, acetylsalicylic acid], for which the “ex vivo platelet aggregation, collagen” value in series [2] (2.5 μg/ml collagen) is “strongly aggregated”. Further, in series [2] (10 μM ADP), the “ex vivo platelet aggregation, ADP” value is “strongly aggregated”. Further, the “ex vivo platelet aggregation, arachidonate” value in series [2] (0.1 mM sodium arachidonate) was “only blocked platelet reactivity to arachidonate”. For the same molecule, the “Platelet aggregation, baseline” value in series [1] (agonist ADP) was determined as 69 ± 5 arbitrary units; in series [1] (agonist Collagen), 62 ± 8 arbitrary units; in series [1] (agonist TRAP) it was 66 ± 6 arbitrary units. Moreover, the “postischemic cerebral blood flow” value in series [3] (24 hours after stroke induction) is on record as “no improvement was seen in postischemic cerebral blood flow”. For the same molecule, the “intracerebral hemorrhage following stroke” value in series [3] (measured spectrophotometrically, any dose of solCD39 tested, aspirin 5 mg/kg) is “increased intracerebral hemorrhage”. For the same molecule, the cerebral infarct volume result in series [3] (preoperative administration, solCD39 4 & 8 mg/kg, aspirin 5 mg/kg) is “tendency to decrease cerebral infarct volume, although this effect was not statistically significant”.

B1: pIL2LSolCD39: untagged soluble human CD39 with huIL2 leader, 12 mature IL2 residues and three amino acid linker (SEQ ID NO:7) (protein)
chain: MALWIDRMQLLSCIALSLALVTNSAPTSSSTKKTQLTSSTQNKALPENVKYGIVLDAGSSHTSLYIYKWPAEKENDTGVVHQVEECRVKGPGISKFVQKVNEIGIYLTDCMERAREVIPRSQHQETPVYLGATAGMRLLRMESEELADRVLDVVERSLSNYPFDFQGARIITGQEEGAYGWITINYLLGKFSQKTRWFSIVPYETNNQETFGALDLGGASTQVTFVPQNQTIESPDNALQFRLYGKDYNVYTHSFLCYGKDQALWQKLAKDIQVASNEILRDPCFHPGYKKVVNVSDLYKTPCTKRFEMTLPFQQFEIQGIGNYQQCHQSILELFNTSYCPYSQCAFNGIFLPPLQGDFGAFSAFYFVMKFLNLTSEKVSQEKVTEMMKKFCAQPWEEIKTSYAGVKEKYLSEYCFSGTYILSLLLQGYHFTADSWEHIHFIGKIQGSDAGWTLGYMLNLTNMIPAEQPLSTPLSHST
Take B1: the “CPM × 10^3 (net counts), ATPase activity in CM” value amounted to 20.1 CPM × 10^3 in series [4] (10 μL 1x COS-1 supernatant), 36.0 CPM × 10^3 in series [4] (20 μL 1x COS-1 supernatant) and 51.0 CPM × 10^3 in series [4] (30 μL 1x COS-1 supernatant). Moreover, in series [4], the “Activity (pmol ATP/min/μg) × 10^3” value is listed as 5.67 pmol ATP/min/μg × 10^3.

B2: pIL2LTrim2: huIL2 leader with an intervening Ala-Ser-Ser linker preceding solCD39 (protein)
chain: TQNKALPENVKYGIVLDAGSSHTSLYIYKWPAEKENDTGVVHQVEECRVKGPGISKFVQKVNEIGIYLTDCMERAREVIPRSQHQETPVYLGATAGMRLLRMESEELADRVLDVVERSLSNYPFDFQGARIITGQEEGAYGWITINYLLGKFSQKTRWFSIVPYETNNQETFGALDLGGASTQVTFVPQNQTIESPDNALQFRLYGKDYNVYTHSFLCYGKDQALWQKLAKDIQVASNEILRDPCFHPGYKKVVNVSDLYKTPCTKRFEMTLPFQQFEIQGIGNYQQCHQSILELFNTSYCPYSQCAFNGIFLPPLQGDFGAFSAFYFVMKFLNLTSEKVSQEKVTEMMKKFCAQPWEEIKTSYAGVKEKYLSEYCFSGTYILSLLLQGYHFTADSWEHIHFIGKIQGSDAGWTLGYMLNLTNMIPAEQPLSTPLSHST
modifications: left off: small tags and cut ends
Regarding B2, in series [4], the “Activity (pmol ATP/min/μg) × 10^3” value is listed as 6.67 pmol ATP/min/μg × 10^3.

B3: Abciximab: platelet-specific chimeric antibody, glycoprotein IIb/IIIa antagonist (trade name ReoPro) (antibody, chains of the INN, looked up, V domains shown)
VH: EVQLQQSGTVLARPGASVKMSCEASGYTFTNYWMHWVKQRPGQGLEWIGAIYPGNSDTSYIQKFKGKAKLTAVTSTTSVYMELSSLTNEDSAVYYCTLYDGYYVFAYWGQGTLVTVSA
VL: EIVLTQSPVTLSVTPGDSVSLSCRASRDISNNLHWFQQTSHESPRLLIKYASQSMSGIPSRFSGSGSGTDFTLSINSVETEDFGMYFCQQTNSWPYTFGGGTKLEIK
modifications: Fab
On to B3, for which the “Platelet aggregation, baseline” value in series [1] (agonist ADP) was 0 ± 0 arbitrary units; in series [1] (agonist Collagen) it was 0 ± 0 arbitrary units; in series [1] (agonist TRAP), 46 ± 6 arbitrary units.

B4: pIL2LTrim1: huIL2 leader joined to solCD39 with an intervening alanine residue (SEQ ID NO:27) (protein)
chain: MALWIDRMQLLSCIALSLALVTNSATQNKALPENVKYGIVLDAGSSHTSLYIYKWPAEKENDTGVVHQVEECRVKGPGISKFVQKVNEIGIYLTDCMERAREVIPRSQHQETPVYLGATAGMRLLRMESEELADRVLDVVERSLSNYPFDFQGARIITGQEEGAYGWITINYLLGKFSQKTRWFSIVPYETNNQETFGALDLGGASTQVTFVPQNQTIESPDNALQFRLYGKDYNVYTHSFLCYGKDQALWQKLAKDIQVASNEILRDPCFHPGYKKVVNVSDLYKTPCTKRFEMTLPFQQFEIQGIGNYQQCHQSILELFNTSYCPYSQCAFNGIFLPPLQGDFGAFSAFYFVMKFLNLTSEKVSQEKVTEMMKKFCAQPWEEIKTSYAGVKEKYLSEYCFSGTYILSLLLQGYHFTADSWEHIHFIGKIQGSDAGWTLGYMLNLTNMIPAEQPLSTPLSHST
With B4, the “Activity (pmol ATP/min/μg) × 10^3” value in series [4] was determined as 8.38 pmol ATP/min/μg × 10^3.

B5: S218A mutant: CD39 mutant, Serine218 replaced with alanine (protein, UniProt P49961 1-510, looked up, variant S218A)
Ectonucleoside triphosphate …: MEDTKESNVKTFCSKNILAILGFSSIIAVIALLAVGLTQNKALPENVKYGIVLDAGSSHTSLYIYKWPAEKENDTGVVHQVEECRVKGPGISKFVQKVNEIGIYLTDCMERAREVIPRSQHQETPVYLGATAGMRLLRMESEELADRVLDVVERSLSNYPFDFQGARIITGQEEGAYGWITINYLLGKFSQKTRWFSIVPYETNNQETFGALDLGGAATQVTFVPQNQTIESPDNALQFRLYGKDYNVYTHSFLCYGKDQALWQKLAKDIQVASNEILRDPCFHPGYKKVVNVSDLYKTPCTKRFEMTLPFQQFEIQGIGNYQQCHQSILELFNTSYCPYSQCAFNGIFLPPLQGDFGAFSAFYFVMKFLNLTSEKVSQEKVTEMMKKFCAQPWEEIKTSYAGVKEKYLSEYCFSGTYILSLLLQGYHFTADSWEHIHFIGKIQGSDAGWTLGYMLNLTNMIPAEQPLSTPLSHSTYVFLMVLFSLVLFTVAIIGLLIFHKPSYFWKDMV
Consider B5, for which the ADPase activity retained entry in series [5] is recorded as “less than 10%”.
